Experiments:
HepG2 [1] = assay: Cytotoxicity against human HepG2 cells assessed as reduction in cell growth measured after 72 hrs by MTT assay; type: functional, cell-based; settings: HepG2, 72 h
PANC-1 = assay: Cytotoxicity against human PANC-1 cells assessed as reduction in cell growth measured after 72 hrs by MTT assay; type: functional, cell-based; settings: PANC-1, 72 h
PC-9 = assay: Cytotoxicity against human PC-9 cells assessed as reduction in cell growth measured after 72 hrs by MTT assay; type: functional, cell-based; settings: PC-9, 72 h
BGC-823 = assay: Cytotoxicity against human BGC-823 cells assessed as reduction in cell growth measured after 72 hrs by MTT assay; type: functional, cell-based; settings: BGC-823, 72 h
HCT-116 = assay: Cytotoxicity against human HCT-116 cells assessed as reduction in cell growth measured after 72 hrs by MTT assay; type: functional, cell-based; settings: HCT-116, 72 h
Influenza A virus = assay: Antiviral activity against Influenza A virus infected in HEK293T-GlUC cells assessed as inhibition of viral replication at 10 uM preincubated with cells for 2 hrs followed by viral infection and measured after 24 hrs relative to control; type: functional; settings: HEK-293T, time 26 hrs
HepG2 [2] = assay: Hepatoprotective activity against APAP-induced cell injury in human HepG2 cells assessed as cell survival rate at 10 uM incubated for 24 hrs by MTT assay relative to control; type: functional
RAW264.7 = assay: Antiinflammatory activity in LPS-induced mouse RAW264.7 cells assessed as inhibition of TNF-alpha production at 10 uM incubated for 1 hr followed by LPS-stimulation and measured after 24 hrs by ELISA analysis relative to control; type: functional; settings: time 25 hrs

SMILES	IC50 (HepG2 [1]) [µM]	IC50 (PANC-1) [µM]	IC50 (PC-9) [µM]	IC50 (BGC-823) [µM]	IC50 (HCT-116) [µM]	inhibition at 10 µM (Influenza A virus) [%]	Activity (HepG2 [2]) [%]	inhibition at 10 µM (RAW264.7) [%]
CC(=O)O[C@H]1C(=O)[C@@]2(C)[C@H]([C@H](OC(=O)c3ccccc3)[C@]3(O)C[C@H](OC(=O)[C@H](O)[C@@H](NC(=O)c4ccccc4)c4ccccc4)C(C)=C1C3(C)C)[C@]1(OC(C)=O)CO[C@@H]1C[C@@H]2O [PACLITAXEL]	0.064	0.004	–	–	–	–	–	–
CC(C)=CCC/C(C)=C/CC[C@@](C)(O)[C@@H]1CC[C@H]2[C@@]1(C)CC[C@H]1C(C)(C)[C@@H](O[C@@H]3O[C@H](CO)[C@@H](O)[C@H](O)[C@H]3O[C@@H]3O[C@H](CO)[C@@H](O)[C@H](O)[C@H]3O)CC[C@]21C	> 50	45	36	26	39	65	48	30
C=C(CC/C=C(\C)CCC=C(C)C)[C@H]1CC[C@H]2[C@@]1(C)CC[C@H]1C(C)(C)[C@@H](O)CC[C@]21C	> 50	> 50	> 50	> 50	> 50	45	–	40
CC(C)=CC/C=C(/C)[C@H]1CC[C@]2(C)[C@@H]1CC[C@@H]1[C@@]3(C)CC[C@H](O)C(C)(C)[C@@H]3CC[C@]12C	> 50	> 50	> 50	> 50	> 50	88	52	50
CC(C)=CCC[C@@](C)(O)[C@H]1CC[C@]2(C)[C@@H]1CC[C@@H]1[C@@]3(C)CC[C@H](O)C(C)(C)[C@@H]3CC[C@]12C	37	33	49	40	40	57	51	43
N[C@@H](CCC(=O)N[C@@H](CS)C(=O)NCC(=O)O)C(=O)O [GLUTATHIONE]	–	–	–	–	–	–	60	–
C=C(CC/C=C(\C)CCC=C(C)C)[C@@H]1CC[C@H]2[C@@]1(C)CC[C@H]1C(C)(C)[C@@H](O)CC[C@]21C	> 50	> 50	> 50	> 50	> 50	62	58	53
CC(C)=CCC/C(C)=C/CC[C@@](C)(O)[C@@H]1CC[C@H]2[C@@]1(C)CC[C@H]1C(C)(C)[C@@H](O)CC[C@]21C	31	29	44	42	41	76	–	42
CC(C)=CCC/C(C)=C/CCC(C)(O)[C@H]1CC[C@H]2[C@@]1(C)CC[C@H]1C(C)(C)[C@@H](O)CC[C@]21C (some centres undefined)	22	15	14	40	17	71	47	34
C[C@@H]1C[C@H]2[C@@H]3CCC4=CC(=O)C=C[C@]4(C)[C@@]3(F)[C@@H](O)C[C@]2(C)[C@@]1(O)C(=O)CO [DEXAMETHASONE]	–	–	–	–	–	–	–	55
NC(=O)c1ncn([C@@H]2O[C@H](CO)[C@@H](O)[C@H]2O)n1 [RIBAVIRIN]	–	–	–	–	–	97	–	–
CC(C)=CCC/C(C)=C/CC[C@@](C)(O)[C@@H]1CC[C@H]2[C@@]1(C)CC[C@H]1C(C)(C)[C@@H](O[C@@H]3O[C@H](CO)[C@@H](O)[C@H](O)[C@H]3O)CC[C@]21C	> 50	22	49	> 50	28	47	55	39
C=C(C)[C@@H]1CC[C@]2(C)CC[C@]3(C)[C@H](CC[C@@H]4[C@@]5(C)CC[C@H](O)C(C)(C)[C@@H]5CC[C@]43C)[C@@H]12 [LUPEOL]	> 50	> 50	> 50	> 50	> 50	17	–	34

Source: ChEMBL document CHEMBL5370561, “Characterization of a Malabaricane-Type Triterpene Synthase from Astragalus membranaceus and Enzymatic Synthesis of Astramalabaricosides” (J Nat Prod, 2023)
